From paper PMC12668314, “Identification of a Proteolysis‐Targeting‐Chimera that Addresses Activated Checkpoint Kinase‐1 Reveals its Non‐Catalytic Functions in Tumor Cells” (Angewandte Chemie (International Ed. in English), 2025)

The compounds below were run against T1, CHK1 (checkpoint kinase-1) (Homo sapiens, UniProt O14757) (assay: in vitro binding test against human CHK1 (Eurofins Discovery), at […]).
T1 construct: gene CHEK1
T1 sequence (O14757 1-476): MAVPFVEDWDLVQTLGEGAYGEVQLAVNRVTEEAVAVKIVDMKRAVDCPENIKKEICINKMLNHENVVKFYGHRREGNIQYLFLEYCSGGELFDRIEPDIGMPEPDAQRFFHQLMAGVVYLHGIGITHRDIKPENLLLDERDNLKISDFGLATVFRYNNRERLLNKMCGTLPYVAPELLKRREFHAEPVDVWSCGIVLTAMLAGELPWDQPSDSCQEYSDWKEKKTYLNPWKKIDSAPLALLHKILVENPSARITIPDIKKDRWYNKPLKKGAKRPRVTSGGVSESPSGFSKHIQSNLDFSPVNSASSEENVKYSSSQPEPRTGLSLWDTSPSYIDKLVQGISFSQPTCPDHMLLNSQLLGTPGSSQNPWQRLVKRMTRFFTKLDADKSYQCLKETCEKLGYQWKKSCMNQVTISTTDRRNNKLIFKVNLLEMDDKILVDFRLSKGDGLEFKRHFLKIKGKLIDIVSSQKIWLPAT

Point of comparison: `CNC(=O)c1ccc(NC(=O)Nc2cnc(C)cn2)c(OC[C@@H]2CNCCO2)c1` [9a], inhibition at 1 µM 95%. Against it:
- Cc1cnc(NC(=O)Nc2cc(Br)c(C)cc2OC[C@@H]2CNCCO2)cn1 [rabusertib] — higher, 98%
- CNC(=O)c1ccc(OC[C@@H]2CNCCO2)c(NC(=O)Nc2cnc(C)cn2)c1 [9b] — lower, 90%
